The target in this experiment is T1, Fascin1 (Homo sapiens, UniProt Q16658).
T1 construct: gene FSCN1; full-length human Fascin1; in-house protein from pGEX-6P-2A (N-terminal GST, 3C site) in E. coli BL21-gold(DE3), GST cleaved with PreScission
The experiment can be described thus: intrinsic fluorescence titration. It counts as binding.

The structures appear in SMILES notation.

For `Cc1nnc(C(=O)NC(C)(C)c2nc(C(=O)NCc3ccc(F)cc3)c(O)c(=O)n2C)o1` [raltegravir], the Kd was 180 ± 10 µM.

These data come from publication PMC7921938, “The FDA-Approved Antiviral Raltegravir Inhibits Fascin1-Dependent Invasion of Colorectal Tumor Cells In Vitro and In Vivo” (Cancers, 2021).
